Data taken from US6680003B2, “Chiral doping agents with variable spiral pitch induction and application thereof to a reflective color display” (Asulab S.A., priority 2000, dated 2004).

Experiment: Solubility in a nematic

- Solubility s: 4.0% < s % mass
Substance: 2-[4′-(6-Acryloyloxyhexyloxy)-2′.5′-methylazophenyl-4-carbonyloy]—5-[4-(6-Acryloyloxyhexyloxy)benzoyl]-1.4:3.6-D-glucitol [Compound 209sf]
